This data set has as its system Sprague_Dawley/Crl:CD (SD)IGS BR rats. Description: Liver histopathology of treated rats. In kind it is in vivo, rat. To be noted: 1400 mg/kg oral gavage, 24 hours. The method, then: Four control rats were administered a quantity of methylcellulose vehicle (no acetaminophen) having a volume approximately equal to that received by treated rats. After 24 hours, all rats were euthanized and livers were collected by necropsy. At necropsy, blood samples were collected via the vena cava (approximately 0.5 ml) in microtainer tubes. All livers were then fixed in 10% neutral buffered formalin and processed for histopathology by trimming trimmed, dehydrating, embedding in paraffin, sectioning, mounting on glass slides, and staining with hematoxylin and eosin stains.
Microscopically, there was a moderate centrilobular degeneration which was multifocal in two of the animals and was characterized by hepatocellular degeneration and necrosis, edema fluid, hemorrhages, and infiltration of mononuclear cells and occasional neutrophils in the other two animals. The severity and distribution of the microscopic lesions correlated well with the measured increases in ALT, AST, 5′NT, and albumin RT-PCR.

Entries after “also recorded” stand apart in the source; their conditions may differ.

With `CC(=O)Nc1ccc(O)cc1` [acetaminophen], for the setting “four rats”, the “Histopathological analysis of liver” value is on record as “moderate levels of damage”. Besides, the “Hepatocellular Degeneration” value (individual rats (animals 1-4)) is “Diffuse; also recorded: Multifocal”.

The record behind these values is patent US7968291B2, “RNA bioassay” (The Hamner Institute for Health Sciences, priority 2002, dated 2011).
